Experimental data reported in US20260109721A1, “IONIZABLE CATIONIC LIPIDS INCORPORATING SILICON: SYNTHESIS AND LNP FORMULATION” (priority 2023, published 2026).

Columns and labels:
[1] = LNP size, PDI and zeta potential by Dynamic Light Scattering (Method A); format: physicochemical; settings: LNP formulated with the lipid, DLS
Protocol: (§1) The synthesized lipids were tested in term of in vitro transfection efficacy and toxicity on HeLa cells. In order to perform the mentioned biological tests, appropriate LNPs had to be formulated from the synthesized lipids. The formulation technique was different in Method A and B. The particle size, polydispersity index (PDI) and zeta potential of resulting LNPs were determined by means of Dynamic Light Scattering technique (DLS). Prior to biological testing the encapsulation efficiency (EE) of the loaded LNPs was determined by using RiboGreen RNA assay. In case of Method A Luc mRNA while in case of Method B GFP mRNA was transfected into the cells. In parallel with the transfection experiments, toxicity of the investigated LNPs was determined, in case of Method A resazurin assay while in case of Method B MTT assay was used. Additionally, the toxicity of the lipids was investigated on HepG2 cells and IC50 values were determined.
• 1. If needed, prepare stock solutions by solving known amounts of lipid powder into an appropriate solvent. The recommended solvent is ethanol and the recommended concentration is typically in the range 10-50 mM. Higher concentrations are preferred to allow flexibility on mRNA-LNP concentration. • 2. Remove the lipid stock solutions from the −20° C. freezer. For long-term storage, −80° C. is used. • 3. Check the vials for precipitation, DOPE (CAS #4004-05-1) (20 mM) and DSPE-PEG (CAS #474922-26-4) (5 mM) may need a 5-30 minute incubation step at 37° C. with intermittent vortexing to resuspend all contents. […] As a last resort, lipids may be heated to 50° C. to resuspend, time should be kept as short as possible to prevent oxidation or other modifying or degradative processes. • 4. Mix the lipids by vortexing for 2 minutes. • 5. […] Cooling the solution prevent excessive evaporation of ethanol or similar solvents upon opening. • 6. Meanwhile, thaw the RNA samples, including the latest SecNLuc control, by inserting the frozen tube in a room temperature aluminium block. • 7. Prepare for each LNP-formulation with identical mRNA component, an RNA master mix according to Table 1 below in a fresh tube. Use of a master mix allows more precise comparison of lipid formulations relative to each other. Split the master mix over a number of fresh tubes equal to the number of samples+controls. Each tube contains 375 μl of mRNA in 10 mM Citrate pH 4.0. • 8. Prepare for each LNP formulation with identical lipid composition a Lipid master mix according to Table 1 below in a fresh tube, exclude the lipid of interest. Use of a master mix allows more precise comparison of the novel ionizable lipid relative to each other. Split the master mix over a number of fresh tubes equal to the number of samples+controls. Each tube contains 65.5 μl of lipid master mix. • 9. Add the ionizable lipid of interest to the equally divide lipid master mix. Mix well by pipetting up and down. Label the tube according to the ionizable lipid used. • 10. Power on the L1 FM (L1 Formulation Machine uses 2 high-speed syringe pumps to mix lipids in organic solvents with mRNA in acidic aquous solution to generate well-defined LNPs. The microfluidic mixing chip involves a dean-type structure performing the high-efficiency mixing at a total flow rate (TFR) of around 12 ml/min at a 3:1 mixing ratio) and allow it to do a calibration of motor positions.
• 18. Fill a fresh syringe (C) through a blunt 18G stainless steel needle with the previously prepared RNA mixture of step 6. The volume should be approximately 85% of total formulation volume+25 μl (dead-volume). Make sure to remove all air bubbles by tapping. • 19. Fill a fresh syringe (D) through a blunt 18G stainless steel needle with the Lipid master mix. The volume should be approximately […] of total formulation volume+25 μl (dead-volume). Again, Make sure to remove all bubbles. • 20. Attach the syringes in the correct orientation, syringe A on the left and syringe B on the right • 21.

HeLa cells = experiment: Transfection efficiency with Luciferase (SecNLuc) mRNA, Nano-Glo assay (Method A); format: cell-based; settings: Luc mRNA, 24 h, luminescence; for Transfection 10 ng mRNA: 10 ng mRNA/well; for Transfection 50 ng mRNA: 50 ng mRNA/well; for Transfection 100 ng mRNA: 100 ng mRNA/well
Protocol: as §1
• 1. Prepare mRNA solution by adding 100 ng mRNA (SecNLuc, #P009024, RiboPro) to 5 μl Opti-MEM • multiply by number of wells, include different concentrations and add 10% extra • a standard set-up we use is 100 ng-50 ng-10 ng mRNA/well in triplicate, which would need […] mRNA (includes 10% extra)
• 2. (If applicable) Prepare different concentrations in Opti-MEM (for instance 100/50/10 ng). • 3. Add 10 μl to each well and mix carefully by pipetting. • 4. Mix by swirling the plate horizontally at modest speed. Reverse in direction 3 times. • 5. Incubate for 24 hours (incubator).
This protocol is applied to measure luciferase activity for secreted NanoLuc and is based on the protocol by Promega (Nano-Glo® Luciferase Assay System #N1110-1150). The protocol is designed for a 384-wells plate, but volumes can be changed accordingly for other plates.
• 1. Plate cells (HeLa) in 96-well plate, grow until 80% confluent and transfect with SecNanoLuc mRNA and incubate for the desired period (24 h). • 2. After incubation, the translated protein is accumulated in the medium. Transfer medium to a new plate or tubes. • 3. Transfer 12 μl of each sample to a black-walled, clear-bottom 384-well plate • Black-walled plates are important to prevent shine-through of luminescence from other wells; alternatively, multiple wells between samples can be left empty. • 4. Set-up plate reader • 5. Prepare the desired amount of Nano-Glo® Luciferase Assay Reagent by combining one volume of Nano-Glo® Luciferase Assay Substrate with 50 volumes of Nano-Glo® Luciferase Assay Buffer: • a. composition: 100 mM MES pH 6; 1 mM EDTA; […]; 150 mM KCl; 1 mM DTT; 35 mM Thiourea; • b. briefly spin tubes containing substrate in a microcentrifuge before use. • 6. Add and mix (by pipetting) 12 μl Nano-Glo® Luciferase Assay Reagent per well • Wait approximately 3 minutes before measuring luminescence. […] Measure luminescence in plate reader using standard protocol luciferase (this includes mixing sample in plate reader)

SMILES	PDI [1]	Size (nm) [1]	Zeta potential (mV) [1]	Transfection 10 ng mRNA (HeLa cells)	Transfection 50 ng mRNA (HeLa cells)	Transfection 100 ng mRNA (HeLa cells)
CCCCCCCCC(CCCCCC)C(=O)OCCCCCCN(CCCCO)CCCCCCOC(=O)C(CCCCCC)CCCCCCCC (stereo not drawn) [ALC-0315, reference compound]	0.007	131.9 nm	−12.32 mV	2.38E+06	1.22E+07	9.34E+06
CCCCC/C=C\C/C=C\CCCCCCCCOC(CCCCCN(CCO)CCO)O[Si](C)(C)OCCCCCCCC/C=C\C/C=C\CCCCC (stereo not drawn) [Example 39, (21Z,24Z)-3-(2-hydroxyethyl)-11,11-dimethyl-9-(((9Z,12Z)-octadeca-9,12-dien-1-yl)oxy)-10,12-dioxa-3-aza-11-silatriaconta-21,24-dien-1-ol]	0.072	170.4 nm	−9.414 mV	1.46E+05	1.40E+06	4.78E+06
CCCCC/C=C\C/C=C\CCCCCCCCO[Si](C)(C)OC(CCCCCCC/C=C\C/C=C\CCCCC)OCCCCCCN(CCO)CCO (stereo not drawn) [Example 40, (23Z,26Z)-11-((8Z,11Z)-heptadeca-8,11-dien-1-yl)-3-(2-hydroxyethyl)-13,13-dimethyl-10,12,14-trioxa-3-aza-13-siladotriaconta-23,26-dien-1-ol]	0.020	152.7 nm	−8.912 mV	1.47E+05	2.13E+06	8.09E+06
CCCCCCCC/C=C\CCCCCCCCOC(CCCCCCCCCCCCCCC)O[Si](C)(C)OCCCCCCN(CCO)CCO (stereo not drawn) [Example 41, (Z)-3-(2-hydroxyethyl)-11,11-dimethyl-13-pentadecyl-10,12,14-trioxa-3-aza-11-siladotriacont-23-en-1-ol]	0.031	144.2 nm	−8.54 mV	3.11E+05	3.64E+06	1.03E+07
CCCCCCCC/C=C\CCCCCCCC(OCCCCCCCCCCCCCCCC)O[Si](C)(C)OCCCCCCN(CCO)CCO (stereo not drawn) [Example 42, (Z)-13-(heptadec-8-en-1-yl)-3-(2-hydroxyethyl)-11,11-dimethyl-10,12,14-trioxa-3-aza-11-silatriacontan-1-ol]	0.059	129.0 nm	−8.408 mV	6.16E+04	1.32E+06	5.53E+06
CCCCC/C=C\C/C=C\CCCCCCCCOC(CCCCCCCCCCCCCCC)O[Si](C)(C)OCCCCCCN(CCO)CCO (stereo not drawn) [Example 43, (23Z,26Z)-3-(2-hydroxyethyl)-11,11-dimethyl-13-pentadecyl-10,12,14-trioxa-3-aza-11-siladotriaconta-23,26-dien-1-ol]	0.006	144.9 nm	−7.944 mV	4.81E+05	5.50E+06	1.32E+07
CCCCC/C=C\C/C=C\CCCCCCCC(OCCCCCCCCCCCCCCCC)O[Si](C)(C)OCCCCCCN(CCO)CCO (stereo not drawn) [Example 44, 13-((8Z,11Z)-heptadeca-8,11-dien-1-yl)-3-(2-hydroxyethyl)-11,11-dimethyl-10,12,14-trioxa-3-aza-11-silatriacontan-1-ol]	0.083	131.2 nm	−8.273 mV	1.57E+05	2.08E+06	7.09E+06
CCCCC/C=C\C/C=C\CCCCCCCC(OCCCCCCCC/C=C\CCCCCCCC)O[Si](C)(C)OCCCCCCN(CCO)CCO (stereo not drawn) [Example 45, (Z)-13-((8Z,11Z)-heptadeca-8,11-dien-1-yl)-3-(2-hydroxyethyl)-11,11-dimethyl-10,12,14-trioxa-3-aza-11-siladotriacont-23-en-1-ol]	0.043	136.8 nm	−8.85 mV	1.80E+05	2.42E+06	7.94E+06
CCCCC/C=C\C/C=C\CCCCCCCCOC(CCCCCCC/C=C\CCCCCCCC)O[Si](C)(C)OCCCCCCN(CCO)CCO (stereo not drawn) [Example 46, (23Z,26Z)-13-((Z)-heptadec-8-en-1-yl)-3-(2-hydroxyethyl)-11,11-dimethyl-10,12,14-trioxa-3-aza-11-siladotriaconta-23,26-dien-1-ol]	0.095	129.4 nm	−7.772 mV	1.46E+05	1.93E+06	8.16E+06
CCCCCCCC/C=C\CCCCCCCCOC(CCCCCCC/C=C\CCCCCCCC)O[Si](C)(C)OCCCCCCN(CCO)CCO (stereo not drawn) [Example 47, (Z)-13-((Z)-heptadec-8-en-1-yl)-3-(2-hydroxyethyl)-11,11-dimethyl-10,12,14-trioxa-3-aza-11-siladotriacont-23-en-1-ol]	0.014	125.0 nm	−8.469 mV	3.37E+04	1.29E+06	7.06E+06
